“Also recorded” adds a separate entry of the source.

The assay deals with NCI-60 cell lines. Format: cell-based, human.
As to PGGGRGR, the “Cell Line the peptide is associated with (peptide recovered from phage library selection on this NCI-60 cell line)” value was “UO31 Renal”.

Consider PGGLVPG, for which the “Cell Line (NCI-60 cell line the peptide is associated with)” value was “HT-29 Colon”.

For PGGSDAA, the “Cell Line (NCI-60 cell line the peptide is associated with)” value is reported as “SNB-19 CNS”.

On to PGGSRHA, for which the “Cell Line (NCI-60 cell line the peptide and its motif are associated with)” value is reported as “SK-MEL-5 Melanoma”.

As to PGKRGVQ, the “Cell Line with which the peptide (and its tripeptide motif) is associated” value (from here on “Cell Line with which the peptide”) was “H460-Lung”.

On to PGLGYAL, for which the “Cell Line the peptide is associated with (peptide recovered from phage library selection on this NCI-60 cell line)” value was “T-47D Breast”.

Take PGLRGPA: the “Cell Line (NCI-60 cell line the peptide and its motif are associated with)” value is recorded as “OVCAR-4 Ovarian”.

In the case of PGSSFVG, the “Cell Line (NCI-60 cell line the peptide is associated with)” value is “HCT-15 Colon”.

As to PGVLREP, the “Cell Line the peptide is associated with (peptide recovered from phage library selection on this NCI-60 cell line)” value is on record as “A498 Renal”.

Take PIGAVMN: the “Cell Line (NCI-60 cell line the peptide and its motif are associated with)” value is given as “DU-145 Prostate”.

For the substance PIGGLFG, the “Cell Line the peptide is associated with (peptide recovered from phage library selection on this NCI-60 cell line)” value is “ACHN Renal”.

For the substance PKAGRGS, the “Cell Line with which the peptide” value is given as “Hop-62-Lung”.

Consider PLAVGLV, for which the “Cell Line (NCI-60 cell line the peptide is associated with)” value is “HCT-116 Colon”.

Take PLAVSMV: the “Cell Line with which the peptide” value is “SR Leukemia”.

With PLLREVG, the “Cell Line the peptide is associated with (peptide recovered from phage library selection on this NCI-60 cell line)” value was “SN12C Renal”.

Turning to PLLRQQL, the “Cell Line the peptide is associated with (peptide recovered from phage library selection on this NCI-60 cell line)” value is given as “ACHN Renal”.

Consider PLQRGSG, for which the “Cell Line the peptide is associated with (peptide recovered from phage library selection on this NCI-60 cell line)” value was “BT-549 Breast”.

For PLRSFDS, the “Cell Line with which the peptide” value is given as “H23-Lung”.

Take PLRSVWS: the “Cell Line (NCI-60 cell line the peptide is associated with)” value is “SF-268 CNS”.

Consider PLRVDNL, for which the “Cell Line with which the peptide” value was “H23-Lung”.

As to PLRVLKR, the “Cell Line (NCI-60 cell line the peptide is associated with)” value is reported as “SF-295 CNS”.

For the substance PNRRVSA, the “Cell Line with which the peptide” value is reported as “Hop-92-Lung”.

Take PNSAGSV: the “Cell Line the peptide is associated with (peptide recovered from phage library selection on this NCI-60 cell line)” value is reported as “SN12C Renal”.

As to PPGASLY, the “Cell Line (NCI-60 cell line the peptide and its motif are associated with)” value is recorded as “M14 Melanoma”.

Regarding PPGGLKW, the “Cell Line (NCI-60 cell line the peptide is associated with)” value is on record as “SW620-Colon”.

On to PPPWGLR, for which the “Cell Line with which the peptide” value is listed as “K-562-Leukemia”.

Consider PPRAVTN, for which the “Cell Line (NCI-60 cell line the peptide and its motif are associated with)” value is listed as “UACC62 Melanoma”.

As to PQGPSSV, the “Cell Line the peptide is associated with (peptide recovered from phage library selection on this NCI-60 cell line)” value is recorded as “ACHN Renal”.

PQGRGVK: the “Cell Line (NCI-60 cell line the peptide is associated with)” value is given as “SNB-75 CNS”.

As for PRAGGRW, the “Cell Line with which the peptide” value is recorded as “EKVX-Lung”.

As for PRASDIL, the “Cell Line the peptide is associated with (peptide recovered from phage library selection on this NCI-60 cell line)” value is recorded as “BT-549 Breast”.

Consider PRASSTG, for which the “Cell Line the peptide is associated with (peptide recovered from phage library selection on this NCI-60 cell line)” value is “SN12C Renal”.

Consider PRGGRVA, for which the “Cell Line with which the peptide” value is “Hop-92-Lung”.

Take PRGLGVG: the “Cell Line (NCI-60 cell line the peptide and its motif are associated with)” value is on record as “SK-MEL-2 Melanoma”.

Take PRGMARG: the “Cell Line the peptide is associated with (peptide recovered from phage library selection on this NCI-60 cell line)” value is on record as “BT-549 Breast”.

For the substance PRGRLFD, the “Cell Line (NCI-60 cell line the peptide is associated with)” value was “HT-29 Colon”.

Turning to PRGSLFA, the “Cell Line the peptide is associated with (peptide recovered from phage library selection on this NCI-60 cell line)” value is listed as “UO31 Renal”.

On to PRHRASQ, for which the “Cell Line (NCI-60 cell line the peptide and its motif are associated with)” value is reported as “OVCAR-8 Ovarian”.

As for PRLGRLL, the “Cell Line the peptide is associated with (peptide recovered from phage library selection on this NCI-60 cell line)” value is “TK-10 Renal”.

For the substance PRLSDKS, the “Cell Line (NCI-60 cell line the peptide and its motif are associated with)” value is recorded as “SK-MEL-28 Melanoma”.

For the substance PRLSWVL, the “Cell Line (NCI-60 cell line the peptide is associated with)” value is recorded as “HT-29 Colon”.

For PRSSGPM, the “Cell Line the peptide is associated with (peptide recovered from phage library selection on this NCI-60 cell line)” value was “RXF393 Renal”.

Turning to PRSSLVV, the “Cell Line with which the peptide” value was “H460-Lung”.

Consider PRSSYNE, for which the “Cell Line with which the peptide” value was “H460-Lung”.

In the case of PRVSALV, the “Cell Line the peptide is associated with (peptide recovered from phage library selection on this NCI-60 cell line)” value is listed as “MDA-MB-231 Breast”.

For the substance PRYGVRA, the “Cell Line with which the peptide” value is on record as “RPMI-8226-Leukemia”.

Consider PSLLRGF, for which the “Cell Line (NCI-60 cell line the peptide and its motif are associated with)” value was “UACC62 Melanoma”.

Regarding PSVGVRA, the “Cell Line with which the peptide” value is recorded as “H322-Lung”.

As to PTGAGLL, the “Cell Line (NCI-60 cell line the peptide and its motif are associated with)” value is “IGROV1 Ovarian”.

As for PTGEGLR, the “Cell Line (NCI-60 cell line the peptide and its motif are associated with)” value was “SK-MEL-5 Melanoma”.

In the case of PTSGRLV, the “Cell Line (NCI-60 cell line the peptide and its motif are associated with)” value is recorded as “PC3 Prostate”.

Consider PTVSAGL, for which the “Cell Line the peptide is associated with (peptide recovered from phage library selection on this NCI-60 cell line)” value is recorded as “NCI/ADR-RES Breast”.

For the substance PVFRGGS, the “Cell Line the peptide is associated with (peptide recovered from phage library selection on this NCI-60 cell line)” value is recorded as “MDA-MB-231 Breast”.

Turning to PVGAAVA, the “Cell Line (NCI-60 cell line the peptide and its motif are associated with)” value is recorded as “UACC62 Melanoma”.

As to PVGGVLL, the “Cell Line with which the peptide” value is recorded as “A549-Lung”.

Turning to PVHSAGG, the “Cell Line with which the peptide” value was “H460-Lung”.

On to PVRGSVD, for which the “Cell Line with which the peptide” value is “HL-60-Leukemia”.

As to PVRRVSS, the “Cell Line the peptide is associated with (peptide recovered from phage library selection on this NCI-60 cell line)” value is “HS 578 T Breast”.

Consider PVSDGLV, for which the “Cell Line (NCI-60 cell line the peptide and its motif are associated with)” value is “SK-OV-3-3 Ovarian”.

For the substance PWGAGVR, the “Cell Line the peptide is associated with (peptide recovered from phage library selection on this NCI-60 cell line)” value is on record as “BT-549 Breast”.

Consider PWYDGSV, for which the “Cell Line (NCI-60 cell line the peptide and its motif are associated with)” value is on record as “OVCAR-3 Ovarian”.

On to PYRRGSC, for which the “Cell Line the peptide is associated with (peptide recovered from phage library selection on this NCI-60 cell line)” value is listed as “MDA-MB-231 Breast”.

For the substance PYYNGVR, the “Cell Line (NCI-60 cell line the peptide and its motif are associated with)” value is on record as “IGROV1 Ovarian”.

Take QAGSFLR: the “Cell Line with which the peptide” value is on record as “EKVX-Lung”.

In the case of QARGSWL, the “Cell Line (NCI-60 cell line the peptide and its motif are associated with)” value is reported as “OVCAR-4 Ovarian”.

As to QDRVSRS, the “Cell Line with which the peptide” value is “Hop-92-Lung”.

On to QGGRSGV, for which the “Cell Line the peptide is associated with (peptide recovered from phage library selection on this NCI-60 cell line)” value is given as “A498 Renal”.

For QGLVRGG, the “Cell Line (NCI-60 cell line the peptide and its motif are associated with)” value is reported as “OVCAR-4 Ovarian”.

For QGRVNVK, the “Cell Line (NCI-60 cell line the peptide is associated with)” value was “SNB-19 CNS; also recorded: SF-539 CNS” and the “Cell Line with which the peptide” value is on record as “H226-Lung”.

For the substance QGSSNSV, the “Cell Line (NCI-60 cell line the peptide and its motif are associated with)” value is listed as “IGROV1 Ovarian”.

Regarding QGYALRV, the “Cell Line with which the peptide” value is listed as “H23-Lung”.

As to QKPGAVG, the “Cell Line the peptide is associated with (peptide recovered from phage library selection on this NCI-60 cell line)” value was “T-47D Breast”.

For the substance QLGGSFR, the “Cell Line (NCI-60 cell line the peptide and its motif are associated with)” value is listed as “SK-MEL-28 Melanoma”.

As for QLLSQVY, the “Cell Line the peptide is associated with (peptide recovered from phage library selection on this NCI-60 cell line)” value is listed as “MCF-7 Breast”.

Consider QLPGLLR, for which the “Cell Line (NCI-60 cell line the peptide is associated with)” value is on record as “SNB-75 CNS”.

As for QLVSGSL, the “Cell Line (NCI-60 cell line the peptide is associated with)” value is recorded as “HCT-116 Colon”.

Regarding QMQGRAV, the “Cell Line with which the peptide” value is listed as “H226-Lung”.

As to QRAAVIV, the “Cell Line (NCI-60 cell line the peptide is associated with)” value is listed as “SNB-19 CNS; also recorded: SF-539 CNS”.

As to QRSSDLT, the “Cell Line (NCI-60 cell line the peptide and its motif are associated with)” value is “M14 Melanoma”.

For the substance QRYHLRS, the “Cell Line the peptide is associated with (peptide recovered from phage library selection on this NCI-60 cell line)” value is “CAIK-1 Renal”.

In the case of QTLSAGG, the “Cell Line (NCI-60 cell line the peptide is associated with)” value is “SF-295 CNS”.

For QVAGRER, the “Cell Line with which the peptide” value is recorded as “CCRF-CEM Leukemia”.

QVLLRSF: the “Cell Line with which the peptide” value is given as “Hop-62-Lung”.

For QVMMRGS, the “Cell Line with which the peptide” value is “HL-60-Leukemia”.

On to QVRRGVV, for which the “Cell Line (NCI-60 cell line the peptide is associated with)” value is “HT-29 Colon”.

Take QWYSLRS: the “Cell Line (NCI-60 cell line the peptide is associated with)” value is recorded as “LOX-IMVI Melanoma”.

Consider RAAGGSR, for which the “Cell Line with which the peptide” value was “RPMI-8226-Leukemia”.

As to RAAGRVG, the “Cell Line (NCI-60 cell line the peptide is associated with)” value is “HCT-15 Colon”.

For RAAGSAG, the “Cell Line (NCI-60 cell line the peptide and its motif are associated with)” value is “IGROV1 Ovarian”.

In the case of RAAVGAR, the “Cell Line with which the peptide” value is on record as “H23-Lung”.

On to RAAVIHT, for which the “Cell Line (NCI-60 cell line the peptide is associated with)” value is listed as “MALME-3M Melanoma”.

Take RAAVSAI: the “Cell Line with which the peptide” value is listed as “Molt-4-Leukemia”.

For the substance RAGGGAP, the “Cell Line the peptide is associated with (peptide recovered from phage library selection on this NCI-60 cell line)” value is “ACHN Renal”.

On to RAGRDAP, for which the “Cell Line (NCI-60 cell line the peptide and its motif are associated with)” value is listed as “UACC62 Melanoma”.

With RAGRGFE, the “Cell Line (NCI-60 cell line the peptide and its motif are associated with)” value is “UACC62 Melanoma”.

With RAGSRVQ, the “Cell Line (NCI-60 cell line the peptide is associated with)” value is on record as “SF-295 CNS”.

As to RAGSRYI, the “Cell Line (NCI-60 cell line the peptide and its motif are associated with)” value is reported as “SK-MEL-28 Melanoma”.

As for RAHGLVC, the “Cell Line the peptide is associated with (peptide recovered from phage library selection on this NCI-60 cell line)” value was “RXF393 Renal”.

Consider RALGAAS, for which the “Cell Line (NCI-60 cell line the peptide and its motif are associated with)” value was “SK-OV-3-3 Ovarian”.

Turning to RALGLVS, the “Cell Line with which the peptide” value was “CCRF-CEM Leukemia”.

For the substance RAMGGAG, the “Cell Line with which the peptide” value is “RPMI-8226-Leukemia”.

RANGVLV: the “Cell Line with which the peptide” value is recorded as “H23-Lung”.

Take RARTGGS: the “Cell Line (NCI-60 cell line the peptide is associated with)” value was “SNB-75 CNS”.

Turning to RASCALT, the “Cell Line with which the peptide” value was “HL-60-Leukemia”.

For RASCFWD, the “Cell Line the peptide is associated with (peptide recovered from phage library selection on this NCI-60 cell line)” value is reported as “SN12C Renal”.

As for RASCVWA, the “Cell Line the peptide is associated with (peptide recovered from phage library selection on this NCI-60 cell line)” value is listed as “MCF-7 Breast”.

For the substance RASCVWR, the “Cell Line (NCI-60 cell line the peptide and its motif are associated with)” value is reported as “DU-145 Prostate”.

As to RASFRAG, the “Cell Line with which the peptide” value is on record as “SR Leukemia”.

With RASIGIE, the “Cell Line (NCI-60 cell line the peptide and its motif are associated with)” value is reported as “UACC 257 Melanoma”.

RASRIGL: the “Cell Line the peptide is associated with (peptide recovered from phage library selection on this NCI-60 cell line)” value is “TK-10 Renal”.

In the case of RASYYGV, the “Cell Line the peptide is associated with (peptide recovered from phage library selection on this NCI-60 cell line)” value was “RXF393 Renal”.

Source of the values: patent US7781565B2 (priority 2006, dated 2010).
